Measurements published in patent US20230180804A1, “FLAVOR COMPOSITION, AND FOOD AND BEVERAGE” (TAKASAGO INTERNATIONAL CORPORATION, priority 2020, published 2023).

Columns and labels:
[1] = Sensory evaluation of p-cresol odor masking in p-cresol-containing citrus-flavored beverage; conditions: for p-Cresol Odor Intensity: beverage with 50 ppb p-cresol, average score of 7 panelists, scale 0-4; for concentration at which the compound masks the p-cresol odor and does not affect the citrus flavor, lower limit / concentration at which the compound masks the p-cresol odor and does not affect the citrus flavor, upper limit: citrus-flavored beverage with 50 ppb p-cresol
Experimental: To 2 g of lemon flavor obtained by making lemon oil into an essence, purified water was added to adjust the total amount to 1000 ml. To this citrus-flavored beverage, p-cresol adjusted to a concentration of 1% by mass with 95% ethanol was added to 50 ppb in the citrus-flavored beverage. To this p-cresol-containing citrus-flavored beverage, 1-oxacycloheptadecan-7-en-2-one was added at the concentrations presented in Table 1 to confirm the p-cresol odor intensity (masking effect) and the influence on the citrus flavor of each sample.
For the test, seven skilled panelists were selected to perform sensory evaluation. The p-cresol odor intensity of the p-cresol-containing citrus-flavored beverage without added l-oxacycloheptadecan-7-en-2-one was determined as “Rating: 4,” and the p-cresol odor intensity of the p-cresol-free citrus-flavored beverage was determined as “Rating: 0,” and the p-cresol odor intensity (masking effect) of each sample was relatively evaluated according to the following evaluation criteria.
In addition, the influence of the citrus-flavored beverage on the citrus flavor was evaluated absolutely according to the following evaluation criteria for the presence or absence of off- flavor other than p-cresol odor and citrus flavor (Off-Flavor Intensity).
The results are as in Table 1, presenting the average score of the evaluation results for each panelist.

[2] = Sensory evaluation of p-cresol odor masking in p-cresol-containing citrus-flavored confectionery (tablet); conditions: for p-Cresol Odor Intensity: tablet with 200 ppb p-cresol, average score of 6 panelists, scale 0-4; for concentration at which the compound masks the p-cresol odor and does not affect the citrus flavor, lower limit / concentration at which the compound masks the p-cresol odor and does not affect the citrus flavor, upper limit: citrus-flavored confectionery (tablet) with 200 ppb p-cresol
Experimental: Lemon cold-pressed oil was added to the tablet having the composition presented in Table A at a concentration of 1 % by mass, and medium chain fatty acid triglycerides (MCT) was used to adjust p-cresol to a concentration of 0.1%, which was further added so as to reach 200 ppb in the citrus flavored confectionery. To this p-cresol-containing citrus-flavored confectionery, 1-oxacycloheptadecan-7-en-2-one was added at the concentrations presented in Table 12, and then tableting was performed to confirm the p-cresol odor intensity (masking effect) and the influence on the citrus flavor of each sample.
Six skilled panelists were selected to perform the same sensory evaluation as in Example 1. The results are as in Table 12, presenting the average score of the evaluation results for each panelist.

[3] = Sensory evaluation of p-cresol odor masking in p-cresol-containing grated raw ginger; conditions: for p-Cresol Odor Intensity: grated ginger with 600 ppb p-cresol, average score of 9 panelists, scale 0-4
Experimental: To commercially available grated raw ginger, p-cresol adjusted to a concentration of 0.1% with 95% ethanol was added to a concentration of 600 ppb in the ginger. To this p-cresol-containing ginger, 1-oxacycloheptadecan-8-en-2-one was added at the concentrations presented in Table 16 to confirm the p-cresol odor intensity (masking effect) and the influence on the ginger flavor of each sample.
Nine skilled panelists were selected to perform the same sensory evaluation as in Example 1. The results are as in Table 16, presenting the average score of the evaluation results for each panelist.

[4] = Sensory evaluation of p-cresol odor masking in p-cresol-containing lemon dressing; conditions: lemon dressing with 500 ppb p-cresol; for p-Cresol Odor Intensity: average score of 9 panelists, scale 0-4
Experimental: To a commercially available lemon dressing, p-cresol adjusted to a concentration of 0.1% with 95% ethanol was added to 500 ppb in the lemon dressing. To this p-cresol-containing lemon dressing, l-oxacycloheptadecan-8-en-2-one was added at the concentrations presented in Table 18 to confirm the p-cresol odor intensity (masking effect) and the influence on the citrus flavor of each sample.
Nine skilled panelists were selected to perform the same sensory evaluation as in Example 1. The results are as in Table 18, presenting the average score of the evaluation results for each panelist.

olfactory receptor OR9Q2 = target: T1, olfactory receptor OR9Q2 (Homo sapiens, UniProt Q8NGE9); test: OR9Q2 response inhibitory effect for p-cresol, luciferase reporter gene assay; type: cell-based; conditions: p-cresol 100 µM mixed with various concentrations of compound; cells expressing OR9Q2; ratio of Fold Increase value (FIGS. 1 to 11)
T1 construct: 20 N-terminal amino acid residues of bovine rhodopsin (Rho tag); expressed in transfected cells; host or cells: HEK293T
T1 sequence (Q8NGE9 1-314): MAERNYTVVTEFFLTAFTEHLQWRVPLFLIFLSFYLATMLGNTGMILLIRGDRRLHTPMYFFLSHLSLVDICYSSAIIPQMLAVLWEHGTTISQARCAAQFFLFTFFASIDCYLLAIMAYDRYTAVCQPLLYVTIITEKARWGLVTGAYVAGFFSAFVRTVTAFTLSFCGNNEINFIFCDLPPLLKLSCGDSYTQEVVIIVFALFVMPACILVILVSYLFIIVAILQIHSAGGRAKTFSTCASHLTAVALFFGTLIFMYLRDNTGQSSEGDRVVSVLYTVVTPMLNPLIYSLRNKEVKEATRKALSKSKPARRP
Experimental: The human olfactory receptor gene was obtained by cloning from Human Genomic DNA: Female (Promega) by PCR method based on the sequence information registered in GenBank. The 20 N-terminal amino acid residues of bovine rhodopsin were incorporated into the pME18S vector, and the obtained human olfactory receptor gene was incorporated downstream thereof to obtain a human olfactory receptor gene expression vector.
In 10 µL of Opti-MEM I (gibco), 0.05 µg of human olfactory receptor gene expression vector, 0.01 µg of RTP1S vector, 0.01 µg firefly luciferase vector pGL4.29 (Promega) containing cAMP response element promoter, and 0.005 µg of Renilla luciferase vector pGL4.74 (Promega) containing thymidine kinase promoter were dissolved to prepare a gene solution (for one well). HEK293T cells were seeded at 100 µL each in a 96-well plate (Biocoat, Coming) at the number of cells reaching confluence after 24 hours, and a gene solution was added to each well by the lipofection method according to the usage of Lipofectamine 3000 to introduce genes into the cells, and the cells were cultured at 37° C. in a 5% carbon dioxide atmosphere for 24 hours.
After removing the culture medium, the resultant was prepared with CD293 (gibco) medium ([…] added) so as to have a concentration for measuring the aroma substance to be tested, 50 µL of which was added each and stimulated for 3 hours, and then luciferase activity was measured according to the method of using the Dual-Luciferase Reporter Assay System (Promega). The response intensity of the olfactory receptor polypeptide was expressed as a Fold Increase value obtained by dividing the luciferase activity produced by stimulating the aroma substance by the luciferase activity produced in the test system containing no aroma substance.
p-Cresol at 100 µM was mixed with various concentrations of 1-oxacycloheptadecan-7-en-2-one, 1-oxacycloheptadecan-8-en-2-one, isoambrettolide, pentalide, muscone, civetone, 8-2-decenolactone, cinnamic aldehyde, […], sclareolide, and ethyl maltol, and receptor responses were measured in cells expressing OR9Q2. The ratio of the Fold Increase value in the test in which each compound was mixed was calculated, where the Fold Increase value in the test in none of these compounds was mixed was set to 100. FIGS. 1 to 11 present the results.

[5] = grated raw ginger with 600 ppb p-cresol

Row | Molecule | p-Cresol Odor Intensity ([1]; 0.01 ppt added) [points] | p-Cresol Odor Intensity ([1]; 0.1 ppt added) [points] | p-Cresol Odor Intensity ([1]; 1 ppb added) [points] | p-Cresol Odor Intensity ([1]; 1 ppt added) [points] | p-Cresol Odor Intensity ([1]; 10 ppb added) [points] | p-Cresol Odor Intensity ([1]; 10 ppt added) [points] | p-Cresol Odor Intensity ([1]; 100 ppb added) [points] | p-Cresol Odor Intensity ([1]; 100 ppt added) [points] | concentration at which the compound masks the p-cresol odor and does not affect the citrus flavor, lower limit [1] [ppt] | concentration at which the compound masks the p-cresol odor and does not affect the citrus flavor, upper limit [1] | p-Cresol Odor Intensity ([2]; 4 ppb added) [points] | p-Cresol Odor Intensity ([2]; 40 ppb added) [points] | p-Cresol Odor Intensity ([2]; 40 ppt added) [points] | p-Cresol Odor Intensity ([2]; 400 ppb added) [points] | p-Cresol Odor Intensity ([2]; 400 ppt added) [points] | concentration at which the compound masks the p-cresol odor and does not affect the citrus flavor, lower limit [2] | concentration at which the compound masks the p-cresol odor and does not affect the citrus flavor, upper limit [2] [ppb] | effect of suppressing the response of OR9Q2 to p-cresol (olfactory receptor OR9Q2) | also measured
1 | O=C1CCCCC=CCCCCCCCCCO1 [1-Oxacycloheptadecan-7-En-2-One, 1-oxacycloheptadecan-7-en-2-one] | 3.7 | 2.7 | 1.3 | 2.4 | 0.9 | 2.0 | 0.7 | 1.7 | ≥ 0.1 | ≤ 1 ppb | 2.5 | 2.0 | 3.2 | 1.3 | 2.7 | ≥ 400 ppt | ≤ 400 |  | 
2 | O=C1CCCCCC=CCCCCCCCCO1 [1-Oxacycloheptadecan-8-En-2-One, 1-oxacycloheptadecan-8-en-2-one] | 3.6 | 2.9 | 1.1 | 2.6 | 0.7 | 1.9 | 0.4 | 1.4 | ≥ 0.1 | ≤ 1 ppb | 2.5 | 1.8 | 3.3 | 1.7 | 3.2 | ≥ 4 ppb | ≤ 400 |  | p-Cresol Odor Intensity ([3]; 1 ppb added): 1.7 points; p-Cresol Odor Intensity ([3]; 1 ppt added): 3.2 points; p-Cresol Odor Intensity ([3]; 10 ppb added): 1.4 points; p-Cresol Odor Intensity ([3]; 10 ppt added): 2.4 points; p-Cresol Odor Intensity ([3]; 100 ppt added): 2.3 points; concentration at which the compound masks the p-cresol odor and does not affect the ginger flavor, lower limit [3, 5]: ≥ 10 ppt; concentration at which the compound masks the p-cresol odor and does not affect the ginger flavor, upper limit [3, 5]: ≤ 1 ppb; p-Cresol Odor Intensity ([4]; 1 ppb added): 1.1 points; p-Cresol Odor Intensity ([4]; 1 ppt added): 2.9 points; p-Cresol Odor Intensity ([4]; 10 ppb added): 1.0 points; p-Cresol Odor Intensity ([4]; 10 ppt added): 2.2 points; p-Cresol Odor Intensity ([4]; 100 ppt added): 1.6 points; concentration at which the compound masks the p-cresol odor and does not affect the citrus flavor, lower limit [4]: ≥ 1 ppt; concentration at which the compound masks the p-cresol odor and does not affect the citrus flavor, upper limit [4]: ≤ 10 ppb
3 | O=C/C=C/c1ccccc1 [Cinnamic Aldehyde, cinnamic aldehyde] |  |  | 2.3 |  | 2.0 | 3.9 | 2.0 | 2.7 | ≥ 100 | ≤ 10 ppm |  |  |  |  |  |  |  | suppressing the response of OR9Q2 to p-cresol in a concentration-dependent manner | p-Cresol Odor Intensity ([1]; 1 ppm added): 1.7 points; p-Cresol Odor Intensity ([1]; 10 ppm added): 0.9 points; p-Cresol Odor Intensity ([1]; 100 ppm added): 0.6 points
4 | ambrettolide |  |  |  |  |  |  |  |  |  |  |  |  |  |  |  |  |  | suppressing the response of OR9Q2 to p-cresol in a concentration-dependent manner | 
